Among the data in US9067949B2, “Benzofuro[3,2-c] pyridines and related analogs as serotonin sub-type 6 (5-HT6) modulators for the treatment of obesity, metabolic syndrome, cognition and schizophrenia” (Albany Molecular Research, Inc., priority 2011, dated 2015) are Ki values, retold here.

The assay addresses human 5-HT6 receptor (Homo sapiens (Human), UniProt P50406). The assay can be described thus: 5-HT6 radioligand binding assay (SPA format, [N-methyl-3H]-LSD). The conditions noted are these: human 5-HT6 receptor membranes, 10 nM [N-methyl-3H]-LSD, Ki by Cheng-Prusoff, read-out: human 5HT6 Ki. How it is done:
The relative affinities of the various compounds for the 5-HT6 receptor were measured in a radioligand binding assay, using a scintillation proximity assay (SPA) format.
For binding analysis vs. the human receptor, samples were incubated in 50 mM Tris-HCl, pH 7.5, 5 mM MgCl2, 1 mM EDTA (4% DMSO final) with 10 nM [N-methyl-^3H]-LSD (Perkin Elmer), 2.5 ng of human 5-HT6 receptor membranes (Millipore) and 50 μg SPA beads (PVT-PEI-WGA, GE Healthcare) per well in a final volume of 0.2 mL. […] Binding reactions were performed in PicoPlate96 microtiter plates (Perkin Elmer) by consecutively adding 50 μL of each competing compound or buffer, SPA beads, radioligand and 5-HT6 receptor membranes. After an overnight incubation at room temperature on a Nutator mixer, plates were centrifuged for 15 min at 1,500 rpm, followed by incubation in the dark for 10 min. […] Total binding control contained compound dilution buffer only; nonspecific binding is determined in the presence of 100 μM 5-hydroxytryptamine. Specific binding was determined by subtracting nonspecific binding from total binding.
All experiments were performed in duplicate using ten concentrations of competing ligand, with clozapine included as a control in every run. IC50 values were determined from specific binding data using XLfit4.1 curve fitting software from IDBS Ltd. The inhibition constant (Ki) was calculated using the Cheng-Prusoff equation: (Ki=IC50/(1+(L/KD)), where L=concentration of radioligand in the assay, and KD=affinity of the radioligand for the receptor.

Structures can show the parent of a compound that is named as a salt. Where two headings read alike, the source gives them in different places.

Sequence of human 5-HT6 receptor (P50406 whole entry): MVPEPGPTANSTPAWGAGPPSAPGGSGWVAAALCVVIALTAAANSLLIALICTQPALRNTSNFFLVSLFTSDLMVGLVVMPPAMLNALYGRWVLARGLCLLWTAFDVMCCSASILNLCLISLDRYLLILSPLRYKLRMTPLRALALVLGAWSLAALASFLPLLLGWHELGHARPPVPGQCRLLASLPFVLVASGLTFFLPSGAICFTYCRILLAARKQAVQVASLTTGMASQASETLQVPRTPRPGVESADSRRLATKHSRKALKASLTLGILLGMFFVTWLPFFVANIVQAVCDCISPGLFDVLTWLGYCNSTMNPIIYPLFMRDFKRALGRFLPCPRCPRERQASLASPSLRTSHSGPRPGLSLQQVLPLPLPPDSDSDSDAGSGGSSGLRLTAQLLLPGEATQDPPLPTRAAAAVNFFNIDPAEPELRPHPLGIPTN

What is called Ki is the equilibrium dissociation constant of an inhibitor or competing ligand from its target. On to `CC1NCCc2oc3c(Cl)cc(S(=O)(=O)c4ccccc4)cc3c21` (racemic) [Example 81a, 6-chloro-1-methyl-8-(phenylsulfonyl)-1,2,3,4-tetrahydrobenzofuro[3,2-c]pyridine hydrochloride], for which the Ki (hydrochloride) worked out at 0.35 nM.
The same measure, in the same setting: next, `CC1Cc2oc3c(Cl)cc(S(=O)(=O)c4ccccc4)cc3c2CN1` (racemic) [Example 81b, 6-chloro-3-methyl-8-(phenylsulfonyl)-1,2,3,4-tetrahydrobenzofuro[3,2-c]pyridine hydrochloride]: 19 nM.
Regarding `O=S(=O)(c1ccccc1)c1cc(Cl)c2oc3c(c2c1)CC(O)CC3` (racemic) [Example 97, 6-chloro-8-(phenylsulfonyl)-1,2,3,4-tetrahydrodibenzo[b,d]furan-2-ol], the Ki stood at 1.7 nM.
For `CC1Cc2oc3c(Cl)cc(S(=O)(=O)c4ccccc4)cc3c2CN1` (single isomer, unassigned; (+)) [Example 83b, (+) 6-chloro-3-methyl-8-(phenylsulfonyl)-1,2,3,4-tetrahydrobenzofuro[3,2-c]pyridine hydrochloride], the Ki (hydrochloride) is 16 nM.
With `CC1NCCc2oc3c(Cl)cc(S(=O)(=O)c4ccccc4)cc3c21` (single isomer, unassigned; (-)) [Example 82b, (−) 6-chloro-1-methyl-8-(phenylsulfonyl)-1,2,3,4-tetrahydrobenzofuro[3,2-c]pyridine hydrochloride], under “hydrochloride”, the Ki was determined as 0.15 nM.
For the compound `O=S(=O)(c1cccc(C(F)(F)F)c1)c1cc(Cl)c2oc3c(c2c1)CNCC3` [Example 45, 6-Chloro-8-(3-trifluoromethylphenylsulfonyl)-1,2,3,4-tetrahydrobenzofuro[3,2-c]pyridine hydrochloride], the inhibition constant Ki was found to be 0.48 nM.
Same read-out and setting: then `O=S(=O)(c1cccc(Cl)c1)c1cc(Cl)c2oc3c(c2c1)CNCC3` [Example 46, 6-Chloro-8-(3-chlorophenylsulfonyl)-1,2,3,4-tetrahydrobenzofuro[3,2-c]pyridine hydrochloride], with 0.35 nM; and `O=S(=O)(c1cc(Cl)c2oc3c(c2c1)CNCC3)n1ccc2ccccc21` [Example 51, 8-(1H-Indol-1-ylsulfonyl)-6-chloro-1,2,3,4-tetrahydrobenzofuro[3,2-c]pyridine hydrochloride], with 0.2 nM.
The same measure, in the same setting: then `Cc1cc(S(=O)(=O)c2ccccc2)cc2c3c(oc12)CCNC3` [Example 53, 6-Methyl-8-(phenylsulfonyl)-1,2,3,4-tetrahydrobenzofuro[3,2-c]pyridine hydrochloride], with 0.22 nM; and `O=S(=O)(c1cccc(F)c1)c1ccc2c3c(oc2c1)CC1CCC3N1` (centres unmarked) [Example 66, 3-(3-Fluorophenyl)sulfonyl-6,7,8,9,10-pentahydro-7,10-epiminocyclohepta[b]benzofuran hydrochloride], with 533 nM.
Still for that read-out and setting: then `COc1cc(S(=O)(=O)c2ccc3[nH]ccc3c2)cc2c3c(oc12)CCNC3` [Example 70, 8-(1H-indol-5-ylsulfonyl)-6-methoxy-1,2,3,4-tetrahydrobenzofuro[3,2-c]pyridine hydrochloride], with 0.083 nM; and `O=S(=O)(c1cccc(C2CCOC2)c1)c1cc(Cl)c2oc3c(c2c1)CNCC3` (centres unmarked) [Example 71, 6-chloro-8-(3-(tetrahydrofuran-3-yl)phenylsulfonyl)-1,2,3,4-tetrahydrobenzofuro[3,2-c]pyridine hydrochloride], with 2 nM; and `O=S(=O)(c1ccc(CO)cc1)c1cc(Cl)c2oc3c(c2c1)CNCC3` [Example 72, (4-((6-chloro-1,2,3,4-tetrahydrobenzofuro[3,2-c]pyridin-8-yl)sulfonyl)phenyl)methanol hydrochloride], with 12 nM.
As to `N#Cc1cc(S(=O)(=O)c2cccc(F)c2)cc2c3c(oc12)CCNC3` [Example 73, 8-(3-fluorophenylsulfonyl)-1,2,3,4-tetrahydrobenzofuro[3,2-c]pyridine-6-carbonitrile hydrochloride], the Ki was found to be 4.3 nM.
With `O=S(=O)(c1ccccc1)c1cc(CO)c2oc3c(c2c1)CNCC3` [Example 74, (8-(phenylsulfonyl)-1,2,3,4-tetrahydrobenzofuro[3,2-c]pyridin-6-yl)methanol hydrochloride], the Ki stood at 13 nM.
Still for that read-out and setting: next, `O=S(=O)(c1ccccc1)c1cc(-n2cccn2)c2oc3c(c2c1)CNCC3` [Example 76, 8-(phenylsulfonyl)-6-(1H-pyrazol-1-yl)-1,2,3,4-tetrahydrobenzofuro[3,2-c]pyridine hydrochloride]: 9.3 nM; `O=S(=O)(c1ccccc1)c1cc(-c2cn[nH]c2)c2oc3c(c2c1)CNCC3` [Example 77, 8-(phenylsulfonyl)-6-(1H-pyrazol-4-yl)-1,2,3,4-tetrahydrobenzofuro[3,2-c]pyridine hydrochloride]: 28 nM.
On the same count and under the same terms, next, `CNC(=O)c1cc(S(=O)(=O)c2ccccc2)cc2c3c(oc12)CCNC3` [Example 78, N-methyl-8-(phenylsulfonyl)-1,2,3,4-tetrahydrobenzofuro[3,2-c]pyridine-6-carboxamide hydrochloride]: 607 nM; `O=S(=O)(c1ccccc1)c1cc(Cl)c2oc3c(c2c1)CNC(CO)C3` (centres unmarked) [Example 86, (6-chloro-8-(phenylsulfonyl)-1,2,3,4-tetrahydrobenzofuro[3,2-c]pyridin-3-yl)methanol hydrochloride]: 522 nM; `O=S(=O)(c1ccccc1)c1cc(Cl)c2oc3c(c2c1)C(CF)NCC3` (centres unmarked) [Example 87, 6-chloro-1-fluoromethyl-8-phenylsulfonyl-1,2,3,4-tetrahydrobenzofuro[3,2-c]pyridine hydrochloride]: 4 nM.
On the same count and under the same terms, next, `CN(C)C(=O)C1NCCc2oc3c(Cl)cc(S(=O)(=O)c4ccccc4)cc3c21` (centres unmarked) [Example 88, 6-chloro-N,N-dimethyl-8-(phenylsulfonyl)-1,2,3,4-tetrahydrobenzofuro[3,2-c]pyridine-1-carboxamide hydrochloride]: 252 nM; `O=S(=O)(c1ccccc1)c1cc(Cl)c2oc3c(c2c1)CCNCC3` [Example 90, 7-chloro-9-(phenylsulfonyl)-2,3,4,5-tetrahydro-1H-benzofuro[2,3-d]azepine hydrochloride]: 0.25 nM.
As for `O=S(=O)(c1cc(Cl)c2oc3c(c2c1)CNCC3)c1ccccc1Cl` [Example 100], the Ki was found to be 0.77 nM.
As to `O=S(=O)(c1cc(Cl)c2oc3c(c2c1)CNCC3)c1ccccc1OC(F)(F)F` [Example 102], the Ki turned out to be 3.3 nM.
Same read-out and setting: next, `O=S(=O)(c1cccc(-n2cccn2)c1)c1cc(Cl)c2oc3c(c2c1)CNCC3` [Example 103]: 2.2 nM; `O=S(=O)(c1ccc(-n2cccn2)cc1)c1cc(Cl)c2oc3c(c2c1)CNCC3` [Example 104]: 26 nM; `O=S(=O)(c1ccc2c(c1)COCC2)c1cc(Cl)c2oc3c(c2c1)CNCC3` [Example 105]: 13 nM.
The same measure, in the same setting: then `O=S(=O)(c1ccc2c(c1)CCOC2)c1cc(Cl)c2oc3c(c2c1)CNCC3` [Example 106], with 2.5 nM.
As to `CC(C)(O)c1cccc(S(=O)(=O)c2cc(Cl)c3oc4c(c3c2)CNCC4)c1` [Example 107], the Ki was 0.79 nM.
Still for that read-out and setting: next, `CC(C)(O)c1ccc(S(=O)(=O)c2cc(Cl)c3oc4c(c3c2)CNCC4)cc1` [Example 108]: 1.3 nM.
`COCc1ccc(S(=O)(=O)c2cc(Cl)c3oc4c(c3c2)CNCC4)cc1` [Example 109]: the inhibitory constant (Ki) came to 14 nM.
Same read-out and setting: next, `O=S(=O)(c1cccc(CO)c1)c1cc(Cl)c2oc3c(c2c1)CNCC3` [Example 110]: 4.4 nM; `O=S(=O)(c1ccc(OC(F)F)cc1)c1cc(Cl)c2oc3c(c2c1)CNCC3` [Example 113]: 2.2 nM; `O=S(=O)(c1ccccc1)c1cc(Cl)c2oc3c(c2c1)CN(CCC(F)(F)F)CC3` [Example 114]: 19 nM.
Same read-out and setting: then `O=S(=O)(c1ccccc1)c1cc(Cl)c2oc3c(c2c1)CN(c1cccnc1)CC3` [Example 115], with 123 nM; and `CN1CCc2oc3c(Cl)cc(S(=O)(=O)c4ccccc4)cc3c2C1` [Example 116], with 1 nM.
With `CCN1CCc2oc3c(Cl)cc(S(=O)(=O)c4ccccc4)cc3c2C1` [Example 117], the Ki was 1.2 nM.
The same measure, in the same setting: next, `O=S(=O)(c1cncc(Cl)c1)c1cc(Cl)c2oc3c(c2c1)CNCC3` [Example 119]: 20 nM; `O=S(=O)(c1cccnc1)c1cc(Cl)c2oc3c(c2c1)CNCC3` [Example 120]: 26 nM.
Still for that read-out and setting: next, `O=S(=O)(c1cncc(C(F)(F)F)c1)c1cc(Cl)c2oc3c(c2c1)CNCC3` [Example 121]: 29 nM.
Take `O=S(=O)(c1cc(Cl)c2oc3c(c2c1)CNCC3)c1ccccc1CO` [Example 122]: the Ki was found to be 5.4 nM.
The same measure, in the same setting: next, `COc1cccc(S(=O)(=O)c2cc(Cl)c3oc4c(c3c2)CNCC4)c1` [Example 123]: 1.2 nM; `Cn1ncc2cc(S(=O)(=O)c3cc(Cl)c4oc5c(c4c3)CNCC5)ccc21` [Example 124]: 37 nM.
The same measure, in the same setting: then `O=S(=O)(c1cc(F)cc(Cl)c1)c1cc(Cl)c2oc3c(c2c1)CNCC3` [Example 125], with 2.3 nM.
